The test system of test [1] is AML and high grade MDS. As to conditions: background statement; cited from earlier work.
Test [2] relates to AML sample. The experiment in a line: In vitro treatment of an AML sample with a demethylating agent; expression level of genes SEQ ID NO: 1-24 by qRT-PCR (oxydogram). The conditions noted are these: AML sample of one patient treated in vitro, compared with same untreated AML sample (FIG. 8). The class given is cell-based, human. From the text: Three micrograms of total RNA from each sample were reverse transcribed using the SuperScript® VILO™ cDNA Synthesis kit (Invitrogen) according to the protocol of the supplier. The relative quantification of gene expression was done by real-time PCR on the LightCycler® 480 microwell plate-based cycler platform (Roche Applied Science) using Universal ProbeLibrary assays designed with the ProbeFinder software (Roche Applied Science, www.roche-applied-science.com/sis/rtper/upl/ezhome.html). Primers were purchased from Invitrogen and Universal ProbeLibrary probes from Roche Applied Science. The nucleotide sequences of the primers and probes of each target are shown in Table A. All targets were concomitantly analyzed. qRT-PCR reactions were carried out in a total volume of 10 μL on 20 ng of cDNA using LightCycler® 480 Probes Master (Roche Applied Science). The LightCycler® 480 was programmed to an initial denaturation (95° C., 10 min) following by 45 cycles of 10 sec at 95° C., 30 sec at 60° C., 1 sec at 72° C. and a final cooling step at 40° C. for 10 sec. All reactions were run in triplicate, and average values were used for quantification. Results were analyzed by the relative quantification method (ΔΔCT=ΔCTpatient−ΔCTreference) using the Cycle threshold (CT) values determined with the LightCycler® 480 software (release 1.5.0) from Roche Applied Science. […]
(In general: Real-time PCR tracks product formation cycle by cycle.)

“Also recorded” adds a separate entry of the source.

For `Nc1ncn([C@H]2C[C@H](O)[C@@H](CO)O2)c(=O)n1` [decitabine, 5-azadeoxycytidine], the “share of AML and high grade MDS sensitive to the agents' effects” value in test [1] is “about 30%”.
For `Nc1ncn([C@@H]2O[C@H](CO)[C@@H](O)[C@H]2O)c(=O)n1` [azacytidine, 5-azacytidine], the “share of AML and high grade MDS sensitive to the agents' effects” value in test [1] is “about 30%”. Besides, in test [2], the “modulation of the expression level (ratio) of the genes SEQ ID NO: 1-24” value was “can modulate the expression ratio of the genes SEQ ID NO: 1-24; also recorded: modify the expression level of the genes”.
